Source: ChEMBL document CHEMBL3352398, “2-(2-Bromophenyl)-formononetin and 2-heptyl-formononetin are PPARγ partial agonists and reduce lipid accumulation in 3T3-L1 adipocytes” (Bioorg Med Chem, 2014)
Activity calls are given as the source filed them. The rule behind the calls is not given here.

Columns and labels:
[1] = molecular target: T1, Peroxisome proliferator-activated receptor gamma (Mus musculus) (UniProt P37238); experiment: Agonist activity at PPAR-gamma in mouse embryo fibroblast at 5 to 50 uM by transactivation assay relative to rosiglitazone
T1 sequence (whole entry): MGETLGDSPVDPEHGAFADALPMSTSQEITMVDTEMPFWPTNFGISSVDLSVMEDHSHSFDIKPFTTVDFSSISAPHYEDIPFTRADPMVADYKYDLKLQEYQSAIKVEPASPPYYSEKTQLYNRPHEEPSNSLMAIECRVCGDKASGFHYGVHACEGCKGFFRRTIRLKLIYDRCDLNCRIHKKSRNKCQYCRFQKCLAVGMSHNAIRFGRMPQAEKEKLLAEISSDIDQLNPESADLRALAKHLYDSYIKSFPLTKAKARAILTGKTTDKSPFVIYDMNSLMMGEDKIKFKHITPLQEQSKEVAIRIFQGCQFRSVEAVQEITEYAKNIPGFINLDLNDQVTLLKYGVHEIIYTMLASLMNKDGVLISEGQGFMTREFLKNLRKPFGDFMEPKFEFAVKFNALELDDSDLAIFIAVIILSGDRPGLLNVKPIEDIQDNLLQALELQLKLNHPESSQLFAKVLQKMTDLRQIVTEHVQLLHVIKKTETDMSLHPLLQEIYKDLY

[2] = Cytotoxicity against mouse 3T3L1 cells assessed as effect on lactate dehydrogenase release at 5 to 50 uM measured on day 2; assay type: cell-based; details: 3t3-l1, 50 µM
[3] = test system: 3T3-L1; experiment: Reduction of adipogenesis in mouse 3T3L1 cells assessed as decrease in lipid accumulation measured on day 8 by oil red o assay; assay type: functional, cell-based
[4] = molecular target: T2, Peroxisome proliferator-activated receptor gamma (Homo sapiens, UniProt P37231); experiment: Competitive binding to human GST-tagged PPAR-gamma by TR-FRET assay
T2 sequence (P37231 whole entry): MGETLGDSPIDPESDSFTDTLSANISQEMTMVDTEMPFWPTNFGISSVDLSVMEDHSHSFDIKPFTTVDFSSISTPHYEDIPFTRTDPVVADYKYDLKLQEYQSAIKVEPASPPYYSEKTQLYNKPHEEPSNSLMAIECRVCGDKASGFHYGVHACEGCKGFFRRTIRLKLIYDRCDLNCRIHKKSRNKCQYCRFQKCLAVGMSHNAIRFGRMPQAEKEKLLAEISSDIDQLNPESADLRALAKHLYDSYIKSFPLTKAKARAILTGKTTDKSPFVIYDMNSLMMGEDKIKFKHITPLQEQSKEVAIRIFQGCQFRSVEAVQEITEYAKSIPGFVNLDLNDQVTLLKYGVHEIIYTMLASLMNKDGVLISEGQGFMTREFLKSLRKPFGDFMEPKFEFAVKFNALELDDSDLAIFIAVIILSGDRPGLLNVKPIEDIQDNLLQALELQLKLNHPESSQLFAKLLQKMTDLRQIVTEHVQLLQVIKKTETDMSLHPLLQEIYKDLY

[5] = test system: 3T3-L1; experiment: Effect on adipogenesis in mouse 3T3L1 cells assessed as reduction in Cebpa gene expression at 5 to 50 uM after 4 days by real time quantitative PCR analysis relative to vehicle-treated control; assay type: functional, cell-based
[6] = test system: 3T3-L1; experiment: Effect on adipogenesis in mouse 3T3L1 cells in DI media assessed as reduction in lipid accumulation at 50 uM measured on day 8 by fluorescence-based AdipoRed assay; assay type: functional, cell-based
[7] = test system: 3T3-L1; experiment: Effect on adipogenesis in mouse 3T3L1 cells assessed as reduction in Cebpa gene expression at 5 to 50 uM after 8 days by real time quantitative PCR analysis relative to vehicle-treated control; assay type: functional, cell-based
[8] = test system: 3T3-L1; experiment: Effect on adipogenesis in mouse 3T3L1 cells assessed as reduction in Fabp4 gene expression at 5 to 50 uM after 8 days by real time quantitative PCR analysis relative to vehicle-treated control; assay type: functional, cell-based
[9] = test system: 3T3-L1; experiment: Effect on adipogenesis in mouse 3T3L1 cells assessed as reduction in Srebf1 gene expression at 5 to 50 uM after 4 days by real time quantitative PCR analysis relative to vehicle-treated control; assay type: functional, cell-based
[10] = test system: 3T3-L1; experiment: Effect on adipogenesis in mouse 3T3L1 cells assessed as reduction in Adipoq gene expression at 5 to 50 uM after 4 days by real time quantitative PCR analysis relative to vehicle-treated control; assay type: functional, cell-based
[11] = test system: 3T3-L1; experiment: Reduction in triglyceride release in mouse 3T3L1 cells at 50 uM after 48 hrs by fluorescence-based AdipoRed assay; assay type: functional, cell-based
[12] = molecular target: T3, Peroxisome proliferator-activated receptor gamma (Homo sapiens) (UniProt P37231); experiment: Competitive binding to human GST-tagged PPAR-gamma at <=100 uM by TR-FRET assay
T3 sequence (whole entry): T2 sequence (P37231 whole entry)

[13] = test system: 3T3-L1; experiment: Induction of lipolysis in mouse 3T3L1 cells assessed as up-regulation of Atgl gene exression by real time-qPCR analysis; assay type: functional, cell-based
[14] = test system: 3T3-L1; experiment: Activation of AMPK in mouse 3T3L1 cells assessed as AMPK phosphorylation at 50 uM after 5 to 48 hrs by Western blotting analysis; assay type: cell-based
[15] = test system: 3T3-L1; experiment: Effect on adipogenesis in mouse 3T3L1 cells assessed as increase in Srebf1 gene expression at 5 to 50 uM after 8 days by real time quantitative PCR analysis relative to vehicle-treated control; assay type: functional, cell-based

Activity [1]: 33% | IC50 [4]: 5 µM | Activity [12]: Active
Compound: CCCCCCCc1oc2cc(O)ccc2c(=O)c1-c1ccc(OC)cc1
Activity [2]: Non-toxic | Activity [3]: Dose-dependent effect | Activity [5]: Dose-dependent effect | Activity [6]: Active | Activity [7]: Dose-dependent effect | Activity [8]: inactive | Activity [9]: Dose-dependent effect | Activity [10]: Dose-dependent effect | Activity [11]: Active | Activity [13]: Active | Activity [14]: inactive | Activity [15]: Dose-dependent effect
